{
  "source": "patent US11014895B2",
  "about": "“Heterocyclic urea compound, and drug composition and application thereof” (CHINA PHARMACEUTICAL UNIVERSITY, priority 2017, dated 2021)",
  "key": {"IDO1 enzyme": {"biological_target": "IDO1 enzyme (Homo sapiens, UniProt P14902)", "sequence (P14902 whole entry)": "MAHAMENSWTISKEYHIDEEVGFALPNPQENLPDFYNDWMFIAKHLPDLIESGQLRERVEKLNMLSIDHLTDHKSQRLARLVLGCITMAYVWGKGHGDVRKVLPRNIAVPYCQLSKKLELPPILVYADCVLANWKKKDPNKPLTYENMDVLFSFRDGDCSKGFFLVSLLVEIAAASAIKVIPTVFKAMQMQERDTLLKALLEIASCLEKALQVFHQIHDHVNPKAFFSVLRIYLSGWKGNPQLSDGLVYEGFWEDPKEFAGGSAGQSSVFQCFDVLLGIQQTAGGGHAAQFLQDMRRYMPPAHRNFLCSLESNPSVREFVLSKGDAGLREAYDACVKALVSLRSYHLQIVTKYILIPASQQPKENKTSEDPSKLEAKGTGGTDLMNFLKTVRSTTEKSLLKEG", "experiment": "Determination of biochemical activity of IDO1 enzyme (absorbance at 320 nm)", "details": "room temperature, 3 hours", "procedure": "(1) Method for Determining Biochemical Activity of IDO1 Enzyme\nFirstly, 15 μl of buffer solution of sodium hydrogen phosphate (PH:7-8), 5 μl of reaction buffer solution containing a proper amount of IDO-1 enzyme and heterocyclic urea compound prepared by the invention were added into wells of a microplate, mixed evenly, and reacted at room temperature for 3 hours; then a light absorption value at 320 nm wavelength was detected by using Envision Multilabel Reader of PE company, an inhibition rate of the heterocyclic urea compound on the enzyme reaction was calculated according to an absorption ratio, and an IC50 value of the heterocyclic urea compound was calculated through analysis by GraphPad."}, "[1]": {"biological_target": "T1, IDO1 enzyme in the Hela cell (Homo sapiens, UniProt P14902)", "T1 construct": "endogenous in cells; host or cells: HeLa cells stimulated with interferon γ (100 ng/ml)", "T1 sequence (P14902 whole entry)": "as above", "experiment": "Cell activity: interferon γ-stimulated Hela cells, absorbance of supernatant at 480 nm", "format": "cell-based", "details": "interferon γ 100 ng/ml, 72 hours", "procedure": "(2) Method for Determining Cell Activity\nHela cells were cultured and passaged in a DMEM medium supplemented with antibiotics in a 37° C. CO2 incubator, inoculated into a 96-well plate for overnight culture, then 1 μl of heterocyclic urea compound with appropriate concentration was added to each well, and then 100 μl of interferon γ (final concentration was 100 ng/ml) was added. After the cells were continuously cultured for 72 hours, 70 μl of cell culture supernatant was added to a 96-well V-bottom plate, 5 μl of trichloroacetic acid (6.1 N) was added to each well, incubated at 50° C. for 30 min, then taken out and centrifuged at […] for 10 min. The above centrifuged supernatant was transferred to a 384-well microplate (20 μl/well), then 20 μl of 2% didimethylaminobenzaldehyde acetic acid solution was added to each well, shaken and mixed evenly, then photometric absorption was performed at 480 nm, and values were measured."}},
  "data": [
    {"molecule": "NCCCNC(=O)Nc1nocc1/C(=N/O)Nc1ccc(F)c(Br)c1", "note": "[Embodiment 88, (Z)-1-(4-(N-(3-bromo-4-fluorophenyl)-N′-hydroxyaminoiminomethyl)-isoxazole-3-substituted)-3-(3-propyl)urea]", "values": [
      {"measurement": "IC50", "setting": "IDO1 enzyme", "result": "< 0.001", "unit": "µM"},
      {"measurement": "IC50", "setting": "[1]", "result": "< 0.001", "unit": "µM"}
    ]},
    {"molecule": "O=C(Nc1ccoc1)Nc1cocc1/C(=N/O)Nc1ccc(F)c(Br)c1", "note": "[Embodiment 77]", "values": [
      {"measurement": "IC50", "setting": "IDO1 enzyme", "result": "> 1", "unit": "µM"},
      {"measurement": "IC50", "setting": "[1]", "result": "> 1", "unit": "µM"}
    ]},
    {"molecule": "O=C(Nc1ncc[nH]1)Nc1nonc1/C(=N/O)Nc1ccc(F)c(Br)c1", "note": "[Embodiment 46, (Z)-1-(4-(N-(3-bromo-4-fluorophenyl)-N′-hydroxyaminoiminomethyl)-1,2,5-oxadiazole-3-substituted)-3-(1H-imidazole-2-substituted)urea]", "values": [
      {"measurement": "IC50", "setting": "IDO1 enzyme", "result": "> 1", "unit": "µM"},
      {"measurement": "IC50", "setting": "[1]", "result": "> 1", "unit": "µM"}
    ]},
    {"molecule": "CS(=O)(=O)NCCCNC(=O)Nc1nonc1/C(=N/O)Nc1ccc(F)c(Br)c1", "note": "[Embodiment 17, (Z)-1-(4-(N-(3-bromo-4-fluorophenyl)-N′-hydroxyaminoiminomethyl)-1,2,5-oxadiazole-3-substituted)-3-(3-methamido-propyl)urea]", "values": [
      {"measurement": "IC50", "setting": "IDO1 enzyme", "result": "< 0.001", "unit": "µM"},
      {"measurement": "IC50", "setting": "[1]", "result": "< 0.001", "unit": "µM"}
    ]},
    {"molecule": "O/N=C(\\Nc1ccc(F)c(Br)c1)c1nonc1NC(=S)NC1CC1", "note": "[Embodiment 125, (Z)-1-(4-(N-(3-bromo-4-fluorophenyl)-N′-hydroxyaminoiminomethyl)-1,2,5-oxadiazole-3-substituted)-3-(cyclopropyl)thiourea]", "values": [
      {"measurement": "IC50", "setting": "IDO1 enzyme", "result": "> 1", "unit": "µM"},
      {"measurement": "IC50", "setting": "[1]", "result": "> 1", "unit": "µM"}
    ]},
    {"molecule": "N=C(Nc1ccccc1)Nc1conc1/C(=N/O)Nc1ccc(F)c(Cl)c1", "note": "[Embodiment 155, (Z)-1-(4-(N-(3-chloro-4-fluorophenyl)-N′-hydroxyaminoiminomethyl)-isoxazole-3-substituted)-4-phenylguanidine]", "values": [
      {"measurement": "IC50", "setting": "IDO1 enzyme", "result": "0.1 to 1", "unit": "µM"},
      {"measurement": "IC50", "setting": "[1]", "result": "0.1 to 1", "unit": "µM"}
    ]},
    {"molecule": "CC(C)NC(=O)Nc1cocc1/C(=N/O)Nc1ccc(F)c(Br)c1", "note": "[Embodiment 71, (Z)-1-(4-(N-(3-bromo-4-fluorophenyl)-N′-hydroxyaminoiminomethyl)-furan-3-substituted)-3-isopropylurea]", "values": [
      {"measurement": "IC50", "setting": "IDO1 enzyme", "result": "0.1 to 1", "unit": "µM"},
      {"measurement": "IC50", "setting": "[1]", "result": "0.1 to 1", "unit": "µM"}
    ]},
    {"molecule": "O/N=C(\\Nc1ccc(F)c(Br)c1)c1nonc1NC(=S)Nc1ccc(O)cc1", "note": "[Embodiment 117, (Z)-1-(4-(N-(3-bromo-4-fluorophenyl)-N′-hydroxyaminoiminomethyl)-1,2,5-oxadiazole-3-substituted)-3-(4-hydroxyphenyl)thiourea]", "values": [
      {"measurement": "IC50", "setting": "IDO1 enzyme", "result": "< 0.001", "unit": "µM"},
      {"measurement": "IC50", "setting": "[1]", "result": "< 0.001", "unit": "µM"}
    ]},
    {"molecule": "O=C(Nc1nonc1/C(=N/O)Nc1ccc(F)c(Br)c1)N1CCOCC1", "note": "[Embodiment 49, (Z)-1-(4-(N-(3-bromo-4-fluorophenyl)-N′-hydroxyaminoiminomethyl)-1,2,5-oxadiazole-3-substituted)morpholine-1-carbamide]", "values": [
      {"measurement": "IC50", "setting": "IDO1 enzyme", "result": "0.1 to 1", "unit": "µM"},
      {"measurement": "IC50", "setting": "[1]", "result": "0.1 to 1", "unit": "µM"}
    ]},
    {"molecule": "O=C(Nc1ccoc1)Nc1nonc1/C(=N/O)Nc1ccc(F)c(Br)c1", "note": "[Embodiment 41, (Z)-1-(4-(N-(3-bromo-4-fluorophenyl)-N′-hydroxyaminoiminomethyl)-1,2,5-oxadiazole-3-substituted)-3-(furan-3-substituted)urea]", "values": [
      {"measurement": "IC50", "setting": "IDO1 enzyme", "result": "0.1 to 1", "unit": "µM"},
      {"measurement": "IC50", "setting": "[1]", "result": "0.1 to 1", "unit": "µM"}
    ]},
    {"molecule": "O=C(Nc1nocc1/C(=N/O)Nc1ccc(F)c(Br)c1)NC1CCNCC1", "note": "[Embodiment 85, (Z)-1-(4-(N-(3-bromo-4-fluorophenyl)-N′-hydroxyaminoiminomethyl)-isoxazole-3-substituted)-3-(piperidine-4-substituted)urea]", "values": [
      {"measurement": "IC50", "setting": "IDO1 enzyme", "result": "< 0.001", "unit": "µM"},
      {"measurement": "IC50", "setting": "[1]", "result": "< 0.001", "unit": "µM"}
    ]},
    {"molecule": "N=C(NCCN)Nc1nonc1/C(=N/O)Nc1ccc(F)c(Br)c1", "note": "[Embodiment 153]", "values": [
      {"measurement": "IC50", "setting": "IDO1 enzyme", "result": "< 0.001", "unit": "µM"},
      {"measurement": "IC50", "setting": "[1]", "result": "< 0.001", "unit": "µM"}
    ]},
    {"molecule": "O=C(Nc1nonc1/C(=N/O)Nc1ccc(F)c(Br)c1)NC1CCC1", "note": "[Embodiment 31, (Z)-1-(4-(N-(3-bromo-4-fluorophenyl)-N′-hydroxyaminoiminomethyl)-1,2,5-oxadiazole-3-substituted)-3-cyclobutylurea]", "values": [
      {"measurement": "IC50", "setting": "IDO1 enzyme", "result": "0.1 to 1", "unit": "µM"},
      {"measurement": "IC50", "setting": "[1]", "result": "0.1 to 1", "unit": "µM"}
    ]},
    {"molecule": "N=C(Nc1ccc(O)cc1)Nc1nonc1/C(=N/O)Nc1ccc(F)c(Br)c1", "note": "[Embodiment 141, (Z)-1-(4-(N-(3-bromo-4-fluorophenyl)-N′-hydroxyaminoiminomethyl)-1,2,5-oxadiazole-3-substituted)-3-(4-hydroxyphenyl)guanidine]", "values": [
      {"measurement": "IC50", "setting": "IDO1 enzyme", "result": "< 0.001", "unit": "µM"},
      {"measurement": "IC50", "setting": "[1]", "result": "< 0.001", "unit": "µM"}
    ]},
    {"molecule": "N#Cc1ccc(NC(=O)Nc2nonc2/C(=N/O)Nc2ccc(F)cc2)cc1", "note": "[Embodiment 57, (Z)-1-(4-(N-(4-fluorophenyl)-N′-hydroxyaminoiminomethyl)-1,2,5-oxadiazole-3-substituted)-3-(4-cyanophenyl)urea]", "values": [
      {"measurement": "IC50", "setting": "IDO1 enzyme", "result": "> 1", "unit": "µM"},
      {"measurement": "IC50", "setting": "[1]", "result": "> 1", "unit": "µM"}
    ]},
    {"molecule": "CC1CCC(NC(=O)Nc2nonc2/C(=N/O)Nc2ccc(F)c(Br)c2)CC1", "note": "(stereo not drawn) [Embodiment 9, (Z)-1-(4-(N-(3-bromo-4-fluorophenyl)-N′-hydroxyaminoiminomethyl)-1,2,5-oxadiazole-3-substituted)-3-(4-methylcyclohexyl)urea]", "values": [
      {"measurement": "IC50", "setting": "IDO1 enzyme", "result": "> 1", "unit": "µM"},
      {"measurement": "IC50", "setting": "[1]", "result": "> 1", "unit": "µM"}
    ]},
    {"molecule": "O=C(Nc1nonc1/C(=N/O)Nc1ccc(F)c(Cl)c1)NC1CCCCC1", "note": "[Embodiment 25, (Z)-1-(4-(N-(3-chloro-4-fluorophenyl)-N′-hydroxyaminoiminomethyl)-1,2,5-oxadiazole-3-substituted)-3-cyclohexylurea]", "values": [
      {"measurement": "IC50", "setting": "IDO1 enzyme", "result": "0.1 to 1", "unit": "µM"},
      {"measurement": "IC50", "setting": "[1]", "result": "0.1 to 1", "unit": "µM"}
    ]},
    {"molecule": "OCCNC(=S)Nc1nonc1/C(=N/O)Nc1ccc(F)c(Br)c1", "note": "[Embodiment 128, (Z)-1-(4-(N-(3-bromo-4-fluorophenyl)-N′-hydroxyaminoiminomethyl)-1,2,5-oxadiazole-3-substituted)-3-(2-hydroxyethyl)thiourea]", "values": [
      {"measurement": "IC50", "setting": "IDO1 enzyme", "result": "< 0.001", "unit": "µM"},
      {"measurement": "IC50", "setting": "[1]", "result": "< 0.001", "unit": "µM"}
    ]},
    {"molecule": "O=C(Nc1nonc1/C(=N/O)Nc1ccc(F)c(Br)c1)Nc1coc2ccccc12", "note": "[Embodiment 38, (Z)-1-(4-(N-(3-bromo-4-fluorophenyl)-N′-hydroxyaminoiminomethyl)-1,2,5-oxadiazole-3-substituted)-3-(benzofuran-3-substituted)urea]", "values": [
      {"measurement": "IC50", "setting": "IDO1 enzyme", "result": "0.1 to 1", "unit": "µM"},
      {"measurement": "IC50", "setting": "[1]", "result": "0.1 to 1", "unit": "µM"}
    ]},
    {"molecule": "N=C(Nc1ccccc1)Nc1nonc1/C(=N/O)Nc1ccc(F)c(Br)c1", "note": "[Embodiment 140, (Z)-1-(4-(N-(3-bromo-4-fluorophenyl)-N′-hydroxyaminoiminomethyl)-1,2,5-oxadiazole-3-substituted)-3-phenylguanidine]", "values": [
      {"measurement": "IC50", "setting": "IDO1 enzyme", "result": "0.1 to 1", "unit": "µM"},
      {"measurement": "IC50", "setting": "[1]", "result": "0.1 to 1", "unit": "µM"}
    ]},
    {"molecule": "O=C(Nc1nonc1/C(=N/O)Nc1ccc(F)c(Br)c1)Nc1c[nH]c2ccccc12", "note": "[Embodiment 37, (Z)-1-(4-(N-(3-bromo-4-fluorophenyl)-N′-hydroxyaminoiminomethyl)-1,2,5-oxadiazole-3-substituted)-3-(1H-indole-3-substituted)urea]", "values": [
      {"measurement": "IC50", "setting": "IDO1 enzyme", "result": "0.1 to 1", "unit": "µM"},
      {"measurement": "IC50", "setting": "[1]", "result": "0.1 to 1", "unit": "µM"}
    ]},
    {"molecule": "CCCNC(=O)Nc1cocc1/C(=N/O)Nc1ccc(F)c(Br)c1", "note": "[Embodiment 70, (Z)-1-(4-(N-(3-bromo-4-fluorophenyl)-N′-hydroxyaminoiminomethyl)-furan-3-substituted)-3-propylurea]", "values": [
      {"measurement": "IC50", "setting": "IDO1 enzyme", "result": "0.1 to 1", "unit": "µM"},
      {"measurement": "IC50", "setting": "[1]", "result": "0.1 to 1", "unit": "µM"}
    ]},
    {"molecule": "O=C(Nc1conc1/C(=N/O)Nc1ccc(F)c(Br)c1)NC1CCCC1", "note": "[Embodiment 104, (Z)-1-(4-(N-(3-bromo-4-fluorophenyl)-N′-hydroxyaminoiminomethyl)-isoxazole-3-substituted)-4-(cyclopentyl)urea]", "values": [
      {"measurement": "IC50", "setting": "IDO1 enzyme", "result": "> 1", "unit": "µM"},
      {"measurement": "IC50", "setting": "[1]", "result": "> 1", "unit": "µM"}
    ]},
    {"molecule": "CS(=O)(=O)N1CCN(C(=O)Nc2nonc2/C(=N/O)Nc2ccc(F)cc2)CC1", "note": "[Embodiment 53]", "values": [
      {"measurement": "IC50", "setting": "IDO1 enzyme", "result": "0.1 to 1", "unit": "µM"},
      {"measurement": "IC50", "setting": "[1]", "result": "0.1 to 1", "unit": "µM"}
    ]}
  ]
}
